Measurements from patent publication US11331327B2, “Antibacterial use of halogenated salicylanilides” (UNION therapeutics A/S, priority 2014, dated 2022).
≈ marks a conversion by molar mass, not a printed value. Where two headings read alike, the source gives them in different places.

System: S. aureus clinical isolates and S. aureus ATCC 29213
Test: MIC assay according to CLSI criteria, Example 2, S. aureus strains
Assay type: cell-based, Staphylococcus aureus
Conditions: Staphylococcus aureus, read-out: MIC
Method: Strains were conserved in Luria Bertani (LB) Broth (S. aureus) or Brain Heart Infusion (BHI) (S. pyogenes) supplemented with glycerol 15% (v/v) at −80° C., and reactivated by isolation on LB (S. aureus) or BHI (S. pyogenes) agar plates. Strains were cultivated in Mueller Hinton (MH) Broth-cation adjusted (S. aureus) or BHI (S. pyogenes). All strains were cultivated aerobically (microaerobically for S. pyogenes strains) at 37° C.
Bacterial cultures were stopped in their exponential growth phase and plates were inoculated with the approximate concentration of 5×10^5 cells per well. Plates were incubated at 37° C. for 18 hours (S. aureus) or 24 hours (S. pyogenes).

For C/C(=C\C(=O)OCCCCCCCCC(=O)O)C[C@@H]1OC[C@H](C[C@@H]2O[C@H]2[C@@H](C)[C@H](C)O)[C@@H](O)[C@H]1O [Mupirocin], the MIC (ATCC 29213 / MRSA, strain MRSA 15) was 0.25 µg/mL (≈ 0.499 µM), the MIC (ATCC 29213 / MRSA, strain MRSA 16) was over 16 µg/mL and the MIC (ATCC 29213 / MRSA, strain MRSA 17) was over 16 µg/mL. For the same compound, the MIC (ATCC 29213 / MRSA, strain MRSA 18) was 0.125 µg/mL (≈ 0.25 µM), the MIC (ATCC 29213 / MRSA, strain MRSA 19) was 0.25 µg/mL (≈ 0.499 µM) and the MIC (ATCC 29213 / MRSA, strain MRSA 20) was 0.25 µg/mL (≈ 0.499 µM). It also gave an MIC (ATCC 29213 / MRSA, strain MRSA 21) of 0.125 µg/mL (≈ 0.25 µM), an MIC (ATCC 29213 / MRSA, strain MRSA 22) of 0.25 µg/mL (≈ 0.499 µM) and an MIC (ATCC 29213 / MRSA, strain MRSA 23) of 0.25 µg/mL (≈ 0.499 µM). For the same compound, the MIC (ATCC 29213 / MRSA, strain MRSA 24) was 0.25 µg/mL (≈ 0.499 µM), the MIC (ATCC 29213 / MRSA, strain MRSA 25) was 0.25 µg/mL (≈ 0.499 µM) and the MIC (ATCC 29213 / MRSA, strain MRSA 26) was 0.5 µg/mL (≈ 0.999 µM). It also gave an MIC (ATCC 29213 / MRSA, strain MRSA 27) of 0.25 µg/mL (≈ 0.499 µM), an MIC (ATCC 29213 / MRSA, strain MRSA 27b) of 0.25 µg/mL (≈ 0.499 µM) and an MIC (ATCC 29213 / MRSA, strain MRSA 28) of 0.5 µg/mL (≈ 0.999 µM). For the same compound, the MIC (ATCC 29213 / MRSA, strain MRSA 29) was 0.25 µg/mL (≈ 0.499 µM), the MIC (ATCC 29213 / MRSA, strain MRSA 30) was 0.125 µg/mL (≈ 0.25 µM) and the MIC (ATCC 29213 / MRSA, strain MRSA 31) was 0.25 µg/mL (≈ 0.499 µM). It also gave an MIC (ATCC 29213 / MRSA, strain MRSA 32) of 0.25 µg/mL (≈ 0.499 µM), an MIC (ATCC 29213 / MRSA, strain MRSA 33) of 0.25 µg/mL (≈ 0.499 µM) and an MIC (ATCC 29213 / MRSA, strain MRSA 34) of 0.25 µg/mL (≈ 0.499 µM). It also gave an MIC (ATCC 29213 / MRSA, strain MRSA 35) of 0.5 µg/mL (≈ 0.999 µM), an MIC (ATCC 29213 / MRSA, strain MRSA 36) of 0.25 µg/mL (≈ 0.499 µM) and an MIC (ATCC 29213 / MRSA, strain MRSA 37) of 0.25 µg/mL (≈ 0.499 µM). The MIC (ATCC 29213 / MRSA, strain MRSA 38) was 0.125 µg/mL (≈ 0.25 µM), the MIC (ATCC 29213 / MRSA, strain MRSA 39) was 0.25 µg/mL (≈ 0.499 µM) and the MIC (ATCC 29213 / MRSA, strain MRSA 40) was 0.25 µg/mL (≈ 0.499 µM). The MIC (ATCC 29213 / MRSA, strain MRSA 41) was 0.125 µg/mL (≈ 0.25 µM), the MIC (ATCC 29213 / MRSA, strain MRSA 42) was 0.25 µg/mL (≈ 0.499 µM) and the MIC (ATCC 29213 / MRSA, strain MRSA 43) was 0.25 µg/mL (≈ 0.499 µM). The MIC (ATCC 29213 / MRSA, strain MRSA 44) was 0.25 µg/mL (≈ 0.499 µM), the MIC (ATCC 29213 / MRSA, strain MRSA 45) was 0.13 µg/mL (≈ 0.26 µM) and the MIC (ATCC 29213 / MRSA, strain MRSA 46) was 0.13 µg/mL (≈ 0.26 µM). It also gave an MIC (ATCC 29213 / MRSA, strain MRSA 47) of 0.25 µg/mL (≈ 0.499 µM), an MIC (ATCC 29213 / MRSA, strain MRSA 48) of 0.13 µg/mL (≈ 0.26 µM) and an MIC (ATCC 29213 / MRSA, strain MRSA 49) of 0.25 µg/mL (≈ 0.499 µM). It also gave an MIC (ATCC 29213 / MRSA, strain MRSA 50) of 0.25 µg/mL (≈ 0.499 µM), an MIC (ATCC 29213 / MRSA, strain MRSA 51) of 0.25 µg/mL (≈ 0.499 µM) and an MIC (ATCC 29213 / MRSA, strain MRSA 52) of 0.25 µg/mL (≈ 0.499 µM). For the same compound, the MIC (ATCC 29213 / MRSA, strain MRSA 53) was 0.25 µg/mL (≈ 0.499 µM), the MIC (ATCC 29213 / MRSA, strain MRSA 54) was 0.25 µg/mL (≈ 0.499 µM) and the MIC (ATCC 29213 / MRSA, strain MRSA 55) was 0.25 µg/mL (≈ 0.499 µM). It also gave an MIC (ATCC 29213 / MRSA, strain MRSA 56) of 0.25 µg/mL (≈ 0.499 µM), an MIC (ATCC 29213 / MRSA, strain MRSA 57) of 0.125 µg/mL (≈ 0.25 µM) and an MIC (ATCC 29213 / MRSA, strain MRSA 58) of 0.125 µg/mL (≈ 0.25 µM). It also gave an MIC (ATCC 29213 / MRSA, strain MRSA 59) of 0.125 µg/mL (≈ 0.25 µM), an MIC (ATCC 29213 / MRSA, strain MRSA 60) of 0.25 µg/mL (≈ 0.499 µM) and an MIC (ATCC 29213 / MRSA, strain MRSA 61) of 0.25 µg/mL (≈ 0.499 µM). For the same compound, the MIC (ATCC 29213 / MRSA, strain MRSA 62) was 0.25 µg/mL (≈ 0.499 µM), the MIC (ATCC 29213 / MRSA, strain MRSA 63) was 0.125 µg/mL (≈ 0.25 µM) and the MIC (ATCC 29213 / MRSA, strain MRSA 64) was 0.25 µg/mL (≈ 0.499 µM). It also gave an MIC (ATCC 29213 / MRSA, strain MRSA 65) of 0.25 µg/mL (≈ 0.499 µM), an MIC (ATCC 29213 / MRSA, strain MRSA 66) of 0.25 µg/mL (≈ 0.499 µM) and an MIC (ATCC 29213 / MRSA, strain MRSA 67) of 0.125 µg/mL (≈ 0.25 µM). The MIC (ATCC 29213 / MRSA, strain MRSA 68) was 0.25 µg/mL (≈ 0.499 µM), the MIC (ATCC 29213 / MRSA, strain MRSA 69) was 0.125 µg/mL (≈ 0.25 µM) and the MIC (ATCC 29213 / MRSA, strain MRSA 70) was 0.25 µg/mL (≈ 0.499 µM). For the same compound, the MIC (ATCC 29213 / MRSA, strain MRSA 71) was 0.125 µg/mL (≈ 0.25 µM), the MIC (ATCC 29213 / MRSA, strain MRSA 72) was 0.25 µg/mL (≈ 0.499 µM) and the MIC (ATCC 29213 / MRSA, strain MRSA 73) was 0.25 µg/mL (≈ 0.499 µM). The MIC (ATCC 29213 / MRSA, strain MRSA 74) was 0.25 µg/mL (≈ 0.499 µM), the MIC (ATCC 29213 / MRSA, strain MRSA 75) was 0.5 µg/mL (≈ 0.999 µM) and the MIC (ATCC 29213 / MRSA, strain MRSA 76) was 0.25 µg/mL (≈ 0.499 µM). For the same compound, the MIC (ATCC 29213 / MRSA, strain MRSA 77) was 0.25 µg/mL (≈ 0.499 µM), the MIC (ATCC 29213 / MRSA, strain MRSA 78) was 0.25 µg/mL (≈ 0.499 µM) and the MIC (ATCC 29213 / MRSA, strain MRSA 79) was 0.25 µg/mL (≈ 0.499 µM). For the same compound, the MIC (ATCC 29213 / MRSA, strain MRSA 80) was 0.25 µg/mL (≈ 0.499 µM), the MIC (ATCC 29213 / MRSA, strain MRSA 81) was 0.25 µg/mL (≈ 0.499 µM) and the MIC (ATCC 29213 / MRSA, strain MRSA 82) was 0.25 µg/mL (≈ 0.499 µM). It also gave an MIC (ATCC 29213 / MRSA, strain MRSA 83) of 0.25 µg/mL (≈ 0.499 µM), an MIC (ATCC 29213 / MRSA, strain MRSA 84) of 0.25 µg/mL (≈ 0.499 µM) and an MIC (ATCC 29213 / MRSA, strain MRSA 85) of 0.25 µg/mL (≈ 0.499 µM). It also gave an MIC (ATCC 29213 / MRSA, strain MRSA 86) of 0.25 µg/mL (≈ 0.499 µM), an MIC (ATCC 29213 / MRSA, strain MRSA 87) of 0.25 µg/mL (≈ 0.499 µM) and an MIC (ATCC 29213 / MRSA, strain MRSA 88) of 0.25 µg/mL (≈ 0.499 µM). It also gave an MIC (ATCC 29213 / MRSA, strain MRSA 89) of 0.25 µg/mL (≈ 0.499 µM), an MIC (ATCC 29213 / MRSA, strain MRSA 90) of 0.25 µg/mL (≈ 0.499 µM) and an MIC (ATCC 29213 / MRSA, strain MRSA 91) of 0.25 µg/mL (≈ 0.499 µM). For the same compound, the MIC (ATCC 29213 / MRSA, strain MRSA 92) was 0.25 µg/mL (≈ 0.499 µM), the MIC (ATCC 29213 / MRSA, strain MRSA 93) was 0.25 µg/mL (≈ 0.499 µM) and the MIC (ATCC 29213 / MRSA, strain MRSA 94) was 0.25 µg/mL (≈ 0.499 µM). The MIC (ATCC 29213 / MRSA, strain MRSA 95) was 0.25 µg/mL (≈ 0.499 µM), the MIC (ATCC 29213 / MRSA, strain MRSA 96) was 0.125 µg/mL (≈ 0.25 µM) and the MIC (ATCC 29213 / MRSA, strain MRSA 97) was 0.25 µg/mL (≈ 0.499 µM). For the same compound, the MIC (ATCC 29213 / MRSA, strain MRSA 98) was 0.5 µg/mL (≈ 0.999 µM), the MIC (ATCC 29213 / MRSA, strain MRSA 99) was 0.5 µg/mL (≈ 0.999 µM) and the MIC (ATCC 29213 / MRSA, strain MRSA 100) was 0.5 µg/mL (≈ 0.999 µM). It also gave an MIC (ATCC 29213 / MRSA, strain MRSA 101) of 0.25 µg/mL (≈ 0.499 µM), an MIC (ATCC 29213 / MRSA, strain MRSA 102) of 0.25 µg/mL (≈ 0.499 µM) and an MIC (ATCC 29213 / MRSA, strain MRSA 103) of 0.25 µg/mL (≈ 0.499 µM). For the same compound, the MIC (ATCC 29213 / MRSA, strain MRSA 104) was 0.25 µg/mL (≈ 0.499 µM), the MIC (ATCC 29213 / MRSA, strain MRSA 105) was 0.25 µg/mL (≈ 0.499 µM) and the MIC (ATCC 29213 / MRSA, strain MRSA 106) was 0.25 µg/mL (≈ 0.499 µM). The MIC (ATCC 29213 / MRSA, strain MRSA 107) was 0.25 µg/mL (≈ 0.499 µM), the MIC (ATCC 29213 / MRSA, strain MRSA 108) was 0.25 µg/mL (≈ 0.499 µM) and the MIC (ATCC 29213 / MRSA, strain MRSA 109) was 0.25 µg/mL (≈ 0.499 µM). For the same compound, the MIC (ATCC 29213 / MRSA, strain MRSA 110) was 0.125 µg/mL (≈ 0.25 µM), the MIC (ATCC 29213 / MRSA, strain MRSA 111) was 0.25 µg/mL (≈ 0.499 µM) and the MIC (ATCC 29213 / MRSA, strain MRSA 112) was 0.25 µg/mL (≈ 0.499 µM). It also gave an MIC (ATCC 29213 / MRSA, strain MRSA 113) of 0.25 µg/mL (≈ 0.499 µM), an MIC (ATCC 29213 / MSSA, strain MSSA 01) of 0.125 µg/mL (≈ 0.25 µM) and an MIC (ATCC 29213 / MSSA, strain MSSA 02) of 0.125 µg/mL (≈ 0.25 µM). It also gave an MIC (ATCC 29213 / NEWMAN, strain Newman) of 0.25 µg/mL (≈ 0.499 µM).
